According to ChEMBL document CHEMBL3611972, “Leishmanicidal, antiproteolytic, and mutagenic evaluation of alkyltriazoles and alkylphosphocholines” (Eur J Med Chem, 2015):

Legend:
Leishmania amazonensis [1] = assay: Leishmanicidal activity against Leishmania amazonensis MHOM/BR/71973/M2269 amastigotes infected in mouse peritoneal macrophages assessed as reduction in surviving parasites incubated for 72 hrs by Giemsa staining based optical light microscopy; assay type: functional, organism-based; details: MHOM/BR/71973/M2269, 72 h
Salmonella typhimurium [2] = assay: Mutagenicity in Salmonella typhimurium TA100 assessed as mutagenicity index at 150.98 uM/plate incubated for 90 mins at 37 degC in absence of liver S9 fractions by Ames test relative to untreated control; assay type: toxicity, organism-based; details: salmonella enterica subsp. enterica serovar typhimurium, 1.5 h
Salmonella typhimurium [3] = assay: Mutagenicity in Salmonella typhimurium TA102 assessed as mutagenicity index at 296.15 uM/plate incubated for 90 mins at 37 degC in presence of liver S9 fractions by Ames test relative to untreated control; assay type: toxicity, organism-based; details: salmonella enterica subsp. enterica serovar typhimurium, s9, 1.5 h
Salmonella typhimurium [4] = assay: Mutagenicity in Salmonella typhimurium TA98 assessed as mutagenicity index at 700.00 uM/plate incubated for 90 mins at 37 degC in presence of liver S9 fractions by Ames test relative to untreated control; assay type: toxicity, organism-based; details: salmonella enterica subsp. enterica serovar typhimurium, s9, 1.5 h
[5] = Inhibition of Leishmania mexicana cysteine protease r-CPB2.8 using Z-FR-AMC fluorogenic substrate by spectrofluorometry
[6] = Cytotoxicity against mouse peritoneal macrophages assessed as reduction in cell viability incubated for 72 hrs by MTT assay; assay type: cell-based, Peritoneal macrophage cell
[7] = Mutagenicity in CHOK1 cells assessed as induction of chromosomal DNA mutation by measuring micronuclei level at 6.41 to 25.63 incubated for 3 hrs by cytokinesis-block micronucleus assay; assay type: toxicity, cell-based, Cricetulus griseus; details: chinese hamster, cho-k1, 3 h
Salmonella typhimurium [8] = assay: Mutagenicity in Salmonella typhimurium TA97a assessed as mutagenicity index at 700.00 uM/plate incubated for 90 mins at 37 degC in presence of liver S9 fractions by Ames test relative to untreated control; assay type: toxicity, organism-based; details: salmonella enterica subsp. enterica serovar typhimurium, s9, 1.5 h
Salmonella typhimurium [9] = assay: Mutagenicity in Salmonella typhimurium TA97a assessed as mutagenicity index at 435.85 uM/plate incubated for 90 mins at 37 degC in presence of liver S9 fractions by Ames test relative to untreated control; assay type: toxicity, organism-based; details: salmonella enterica subsp. enterica serovar typhimurium, s9, 1.5 h
Salmonella typhimurium [10] = assay: Mutagenicity in Salmonella typhimurium TA98 assessed as mutagenicity index at 570.37 uM/plate incubated for 90 mins at 37 degC in absence of liver S9 fractions by Ames test relative to untreated control; assay type: toxicity, organism-based; details: salmonella enterica subsp. enterica serovar typhimurium, 1.5 h
[11] = Selectivity index, ratio of CC50 for mouse peritoneal macrophages to IC50 for Leishmania amazonensis MHOM/BR/71973/M2269 amastigotes infected in mouse peritoneal macrophages; assay type: functional
Salmonella typhimurium [12] = assay: Mutagenicity in Salmonella typhimurium TA97a assessed as mutagenicity index at 435.85 uM/plate incubated for 90 mins at 37 degC in absence of liver S9 fractions by Ames test relative to untreated control; assay type: toxicity, organism-based; details: salmonella enterica subsp. enterica serovar typhimurium, 1.5 h
Leishmania amazonensis [13] = assay: microbe, parasite or virus in culture; assay type: functional, organism-based; details: MHOM/BR/71973/M2269, 72 h
Description: Leishmanicidal activity against Leishmania amazonensis MHOM/BR/71973/M2269 promastigotes assessed as reduction in surviving parasites incubated for 72 hrs by Neubauer's chamber based cell counting method

Salmonella typhimurium [14] = assay: Mutagenicity in Salmonella typhimurium TA98 assessed as mutagenicity index at 150.98 uM/plate incubated for 90 mins at 37 degC in presence of liver S9 fractions by Ames test relative to untreated control; assay type: toxicity, organism-based; details: salmonella enterica subsp. enterica serovar typhimurium, s9, 1.5 h
Salmonella typhimurium [15] = assay: Mutagenicity in Salmonella typhimurium TA98 assessed as mutagenicity index at 150.98 uM/plate incubated for 90 mins at 37 degC in absence of liver S9 fractions by Ames test relative to untreated control; assay type: toxicity, organism-based; details: salmonella enterica subsp. enterica serovar typhimurium, 1.5 h
Salmonella typhimurium [16] = assay: Mutagenicity in Salmonella typhimurium TA97a assessed as mutagenicity index at 570.37 uM/plate incubated for 90 mins at 37 degC in presence of liver S9 fractions by Ames test relative to untreated control; assay type: toxicity, organism-based; details: salmonella enterica subsp. enterica serovar typhimurium, s9, 1.5 h
Salmonella typhimurium [17] = assay: Mutagenicity in Salmonella typhimurium TA100 assessed as mutagenicity index at 570.37 uM/plate incubated for 90 mins at 37 degC in absence of liver S9 fractions by Ames test relative to untreated control; assay type: toxicity, organism-based; details: salmonella enterica subsp. enterica serovar typhimurium, 1.5 h
Salmonella typhimurium [18] = assay: Mutagenicity in Salmonella typhimurium TA100 assessed as mutagenicity index at 296.15 uM/plate incubated for 90 mins at 37 degC in absence of liver S9 fractions by Ames test relative to untreated control; assay type: toxicity, organism-based; details: salmonella enterica subsp. enterica serovar typhimurium, 1.5 h
Salmonella typhimurium [19] = assay: Mutagenicity in Salmonella typhimurium TA102 assessed as mutagenicity index at 1185.19 uM/plate incubated for 90 mins at 37 degC in absence of liver S9 fractions by Ames test relative to control; assay type: toxicity, organism-based; details: salmonella enterica subsp. enterica serovar typhimurium, 1.5 h
Salmonella typhimurium [20] = assay: Mutagenicity in Salmonella typhimurium TA98 assessed as mutagenicity index at 905.66 uM/plate incubated for 90 mins at 37 degC in absence of liver S9 fractions by Ames test relative to control; assay type: toxicity, organism-based; details: salmonella enterica subsp. enterica serovar typhimurium, 1.5 h
Salmonella typhimurium [21] = assay: Mutagenicity in Salmonella typhimurium TA97a assessed as mutagenicity index at 313.73 uM/plate incubated for 90 mins at 37 degC in presence of liver S9 fractions by Ames test relative to control; assay type: toxicity, organism-based; details: salmonella enterica subsp. enterica serovar typhimurium, s9, 1.5 h
Salmonella typhimurium [22] = assay: Mutagenicity in Salmonella typhimurium TA100 assessed as mutagenicity index at 905.66 uM/plate incubated for 90 mins at 37 degC in presence of liver S9 fractions by Ames test relative to control; assay type: toxicity, organism-based; details: salmonella enterica subsp. enterica serovar typhimurium, s9, 1.5 h
Salmonella typhimurium [23] = assay: Mutagenicity in Salmonella typhimurium TA102 assessed as mutagenicity index at 313.73 uM/plate incubated for 90 mins at 37 degC in presence of liver S9 fractions by Ames test relative to control; assay type: toxicity, organism-based; details: salmonella enterica subsp. enterica serovar typhimurium, s9, 1.5 h
Salmonella typhimurium [24] = assay: Mutagenicity in Salmonella typhimurium TA98 assessed as mutagenicity index at 905.66 uM/plate incubated for 90 mins at 37 degC in presence of liver S9 fractions by Ames test relative to control; assay type: toxicity, organism-based; details: salmonella enterica subsp. enterica serovar typhimurium, s9, 1.5 h
Salmonella typhimurium [25] = assay: Mutagenicity in Salmonella typhimurium TA100 assessed as mutagenicity index at 1454.55 uM/plate incubated for 90 mins at 37 degC in absence of liver S9 fractions by Ames test relative to control; assay type: toxicity, organism-based; details: salmonella enterica subsp. enterica serovar typhimurium, 1.5 h
Salmonella typhimurium [26] = assay: Mutagenicity in Salmonella typhimurium TA102 assessed as mutagenicity index at 1454.55 uM/plate incubated for 90 mins at 37 degC in absence of liver S9 fractions by Ames test relative to control; assay type: toxicity, organism-based; details: salmonella enterica subsp. enterica serovar typhimurium, 1.5 h
Salmonella typhimurium [27] = assay: Mutagenicity in Salmonella typhimurium TA98 assessed as mutagenicity index at 1454.55 uM/plate incubated for 90 mins at 37 degC in absence of liver S9 fractions by Ames test relative to control; assay type: toxicity, organism-based; details: salmonella enterica subsp. enterica serovar typhimurium, 1.5 h
Salmonella typhimurium [28] = assay: Mutagenicity in Salmonella typhimurium TA100 assessed as mutagenicity index at 1454.55 uM/plate incubated for 90 mins at 37 degC in presence of liver S9 fractions by Ames test relative to control; assay type: toxicity, organism-based; details: salmonella enterica subsp. enterica serovar typhimurium, s9, 1.5 h
Salmonella typhimurium [29] = assay: Mutagenicity in Salmonella typhimurium TA97a assessed as mutagenicity index at 1185.19 uM/plate incubated for 90 mins at 37 degC in absence of liver S9 fractions by Ames test relative to control; assay type: toxicity, organism-based; details: salmonella enterica subsp. enterica serovar typhimurium, 1.5 h
Salmonella typhimurium [30] = assay: Mutagenicity in Salmonella typhimurium TA100 assessed as mutagenicity index at 1185.19 uM/plate incubated for 90 mins at 37 degC in presence of liver S9 fractions by Ames test relative to control; assay type: toxicity, organism-based; details: salmonella enterica subsp. enterica serovar typhimurium, s9, 1.5 h
Salmonella typhimurium [31] = assay: Mutagenicity in Salmonella typhimurium TA97a assessed as mutagenicity index at 313.73 uM/plate incubated for 90 mins at 37 degC in absence of liver S9 fractions by Ames test relative to control; assay type: toxicity, organism-based; details: salmonella enterica subsp. enterica serovar typhimurium, 1.5 h
Salmonella typhimurium [32] = assay: Mutagenicity in Salmonella typhimurium TA98 assessed as mutagenicity index at 313.73 uM/plate incubated for 90 mins at 37 degC in presence of liver S9 fractions by Ames test relative to control; assay type: toxicity, organism-based; details: salmonella enterica subsp. enterica serovar typhimurium, s9, 1.5 h

In the case of CS(=O)(=O)OCCCCCCCCCCCCn1cc(CCCO)nn1, the IC50 (Leishmania amazonensis [1]) is reported as 14.2 µM, the Activity_index (Salmonella typhimurium [2]) is reported as 1.1 and the Activity_index (Salmonella typhimurium [3]) is reported as 1.3. For the same molecule, the Activity_index (Salmonella typhimurium [4]) was 1.2, the IC50 [5] was 8.18 µM and the CC50 at 72 h [6] was 163 µM. For the same molecule, the Activity [7] was “Non-toxic”, the Activity_index (Salmonella typhimurium [8]) was 0.8 and the Activity_index (Salmonella typhimurium [9]) was 0.9. For the same molecule, the Activity_index (Salmonella typhimurium [10]) was 1.3, the “Ratio CC50/IC50” value [11] was 11.47 and the Activity_index (Salmonella typhimurium [12]) was 1.2. It also gave an IC50 (Leishmania amazonensis [13]) of 28.5 µM, an Activity_index (Salmonella typhimurium [14]) of 1.1 and an Activity_index (Salmonella typhimurium [15]) of 1. The Activity_index (Salmonella typhimurium [16]) was 1, the Activity_index (Salmonella typhimurium [17]) was 1.3 and the Activity_index (Salmonella typhimurium [18]) was 1.3.
For CCOC(=O)c1cn(CCCCCCCCCOS(C)(=O)=O)nn1, the Activity_index (Salmonella typhimurium [19]) was 1.2, the IC50 (Leishmania amazonensis [1]) was 76.7 µM and the Activity_index (Salmonella typhimurium [20]) was 1.2. For the same molecule, the Activity_index (Salmonella typhimurium [21]) was 0.8, the IC50 [5] was 0.857 µM and the Activity_index (Salmonella typhimurium [22]) was 1. For the same molecule, the CC50 at 72 h [6] was 983 µM, the Activity_index (Salmonella typhimurium [23]) was 1.4 and the Activity_index (Salmonella typhimurium [24]) was 1. For the same molecule, the Activity_index (Salmonella typhimurium [25]) was 1.2, the Activity_index (Salmonella typhimurium [26]) was 1.1 and the Activity_index (Salmonella typhimurium [27]) was 1.4. For the same molecule, the “Ratio CC50/IC50” value [11] was 12.82, the Activity_index (Salmonella typhimurium [28]) was 0.9 and the Activity_index (Salmonella typhimurium [29]) was 1.3. For the same molecule, the IC50 (Leishmania amazonensis [13]) was 37.2 µM, the Activity_index (Salmonella typhimurium [30]) was 0.9 and the Activity_index (Salmonella typhimurium [31]) was 1.3. For the same molecule, the Activity_index (Salmonella typhimurium [32]) was 1.
